Data: ChEMBL document CHEMBL3407345, “Synthesis and biological evaluation of pyridazino[1',6':1,2]pyrido[3,4-b]indolinium and pyridazino[1,6-a]benzimidazolium salts as anti-inflammatory agents” (Eur J Med Chem, 2015)
The source made the active and inactive calls. No cut-off for these calls is given here.

How the values were obtained:
[1] = Anti-inflammatory activity in human THP1 cells assessed as inhibition of LPS-stimulated TNFalpha production at 1 uM incubated for 24 hrs followed by further stimulation with LPS during last 4 hrs by ELISA method; type: functional; settings: THP-1
[2] = test system: Monocyte; experiment: Anti-inflammatory activity in CD14 expressing human monocytes assessed as inhibition of LPS-stimulated TNFalpha mRNA expression overnight incubated with 1 uM compound followed by further stimulation with LPS for 2 hrs by quantitative RT-PCR analysis; type: functional, cell-based
[3] = test system: Monocyte; experiment: Anti-inflammatory activity in human monocytes assessed as inhibition of poly I:C stimulated-TNFalpha production at 1 and 5 uM pre-incubated for 1 hr followed by overnight poly I:C stimulation by ELISA method; type: functional, cell-based
[4] = Anti-inflammatory activity in human THP1 cells assessed as inhibition of LPS-stimulated TNFalpha production at 10 uM incubated for 24 hrs followed by further stimulation with LPS during last 4 hrs by ELISA method; type: functional; settings: THP-1
[5] = Anti-inflammatory activity in CD14 expressing human monocytes assessed as inhibition of LPS-stimulated TNFalpha production at 2.5 uM incubated for 24 hrs followed by further stimulation with LPS during last 4 hrs by ELISA method; type: functional; settings: Monocyte
[6] = Toxicity against human THP1 cells assessed as cell viability at 10 uM incubated for 24 hrs by propidium iodide staining based flow cytometry; settings: thp-1, 24 h
[7] = species on record: Homo sapiens; experiment: Anti-inflammatory activity in human MDDC assessed as inhibition of poly I:C stimulated-TNFalpha production at 1 and 5 uM pre-incubated for 1 hr followed by overnight poly I:C stimulation by ELISA method; type: functional
[8] = Toxicity against LPS-stimulated human THP1 cells assessed as cell viability at 10 uM incubated for 24 hrs by propidium iodide staining based flow cytometry relative to control; parameters: species or system THP-1; settings: read-out: Activity
[9] = test system: PBMC; experiment: Anti-inflammatory activity in human PBMC assessed as inhibition of LPS-stimulated TNFalpha production at 1 uM incubated for 24 hrs followed by further stimulation with LPS during last 4 hrs by ELISA method; type: functional
[10] = test system: PBMC; experiment: Anti-inflammatory activity in human PBMC assessed as inhibition of LPS-stimulated TNFalpha production incubated for 24 hrs followed by further stimulation with LPS during last 4 hrs by ELISA method; type: functional, cell-based
[11] = Anti-inflammatory activity in human THP1 cells assessed as inhibition of LPS-stimulated TNFalpha production at 5 uM incubated for 24 hrs followed by further stimulation with LPS during last 4 hrs by ELISA method; type: functional; settings: THP-1
[12] = test system: PBMC; experiment: Anti-inflammatory activity in human PBMC assessed as inhibition of LPS-stimulated TNFalpha production at 10 uM incubated for 24 hrs followed by further stimulation with LPS during last 4 hrs by ELISA method; type: functional
[13] = Anti-inflammatory activity in CD14 expressing human monocytes assessed as inhibition of LPS-stimulated TNFalpha production incubated for 24 hrs followed by further stimulation with LPS during last 4 hrs by ELISA method; type: functional, cell-based; settings: Monocyte
[14] = Anti-inflammatory activity in CD14 expressing human monocytes assessed as inhibition of LPS-stimulated TNFalpha production at 1 uM incubated for 24 hrs followed by further stimulation with LPS during last 4 hrs by ELISA method; type: functional; settings: Monocyte
[15] = test system: PBMC; experiment: Anti-inflammatory activity in human PBMC assessed as inhibition of LPS-stimulated TNFalpha production at 5 uM incubated for 24 hrs followed by further stimulation with LPS during last 4 hrs by ELISA method; type: functional
[16] = Anti-inflammatory activity in human THP1 cells assessed as inhibition of LPS-stimulated TNFalpha production at 0.1 uM incubated for 24 hrs followed by further stimulation with LPS during last 4 hrs by ELISA method; type: functional; settings: THP-1
[17] = Anti-inflammatory activity in human THP1 cells assessed as inhibition of LPS-stimulated TNFalpha production incubated for 24 hrs followed by further stimulation with LPS during last 4 hrs by ELISA method; type: functional, cell-based; settings: THP-1
[18] = test system: Mus musculus; experiment: Inhibition of LPS-stimulated TNFalpha production in spelnocytes derived from C57BL/6 mouse treated with two doses of compound at 2 mg/kg, ip at interval of 18 hrs measured 4 hrs after second dose by cytometric bead array method; type: functional, organism-based; parameters: dose 2 mg/kg
[19] = Anti-inflammatory activity in CD14 expressing human monocytes assessed as inhibition of LPS-stimulated TNFalpha production at 10 uM incubated for 24 hrs followed by further stimulation with LPS during last 4 hrs by ELISA method; type: functional; settings: Monocyte
[20] = species on record: Homo sapiens; experiment: Anti-inflammatory activity in human MDDC assessed as inhibition of poly I:C stimulated-IL12 production at 1 and 5 uM pre-incubated for 1 hr followed by overnight poly I:C stimulation by cytometric bead array method; type: functional
[21] = test system: PBMC; experiment: Anti-inflammatory activity in human PBMC assessed as inhibition of LPS-stimulated TNFalpha production at 0.1 uM incubated for 24 hrs followed by further stimulation with LPS during last 4 hrs by ELISA method; type: functional
[22] = test system: Monocyte; experiment: Anti-inflammatory activity in human monocytes assessed as inhibition of poly I:C stimulated-IL12 production at 1 and 5 uM pre-incubated for 1 hr followed by overnight poly I:C stimulation by cytometric bead array method; type: functional, cell-based
[23] = Anti-inflammatory activity in CD14 expressing human monocytes assessed as inhibition of LPS-stimulated TNFalpha production at 0.5 uM incubated for 24 hrs followed by further stimulation with LPS during last 4 hrs by ELISA method; type: functional; settings: Monocyte
[24] = Toxicity against LPS-stimulated human THP1 cells assessed as cell viability at 10 uM incubated for 24 hrs by propidium iodide staining based flow cytometry; settings: thp-1, 24 h
[25] = Anti-inflammatory activity in human THP1 cells assessed as inhibition of LPS-stimulated TNFalpha production at 25 uM incubated for 24 hrs followed by further stimulation with LPS during last 4 hrs by ELISA method; type: functional; settings: THP-1
[26] = target: T1, Tumor necrosis factor receptor superfamily member 1A (Homo sapiens, UniProt P19438); experiment: Inhibition of TNFR1 (unknown origin)
T1 sequence (P19438 whole entry): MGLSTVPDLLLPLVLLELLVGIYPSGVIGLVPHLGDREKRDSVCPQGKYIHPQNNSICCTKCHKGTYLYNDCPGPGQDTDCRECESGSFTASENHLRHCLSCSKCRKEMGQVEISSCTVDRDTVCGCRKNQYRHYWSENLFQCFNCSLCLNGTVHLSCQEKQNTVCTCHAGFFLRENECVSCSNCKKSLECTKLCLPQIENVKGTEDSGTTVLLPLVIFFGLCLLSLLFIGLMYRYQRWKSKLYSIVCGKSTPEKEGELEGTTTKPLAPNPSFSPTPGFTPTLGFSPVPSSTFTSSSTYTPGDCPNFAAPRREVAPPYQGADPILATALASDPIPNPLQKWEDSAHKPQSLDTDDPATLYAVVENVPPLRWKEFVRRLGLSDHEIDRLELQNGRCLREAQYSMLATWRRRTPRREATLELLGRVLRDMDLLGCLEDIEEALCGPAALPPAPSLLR

[27] = Anti-inflammatory activity in human THP1 cells assessed as inhibition of LPS-stimulated TNFalpha production at 50 uM incubated for 24 hrs followed by further stimulation with LPS during last 4 hrs by ELISA method; type: functional; settings: THP-1
[28] = Anti-inflammatory activity in human THP1 cells assessed as inhibition of LPS-stimulated TNFalpha production at 100 uM incubated for 24 hrs followed by further stimulation with LPS during last 4 hrs by ELISA method; type: functional; settings: THP-1

| IC50 [17] | SMILES | inhibition at 1 µM [1] | inhibition at 10 µM [4] | Activity [6] | viability at 24 h, 10 µM [8] | inhibition at 5 µM [11] | Activity [24] | inhibition at 25 µM [25] | further results |
| --- | --- | --- | --- | --- | --- | --- | --- | --- | --- |
| 4.49 µM | COc1ccc2c(c1)[nH]c1c2cc[n+]2nc(C)c(C)cc12.[Br-] | 34.9% | 87.8% | Non-toxic | 61.3% | 63.4% | Non-toxic |  | inhibition [2]: Active; inhibition [3]: Active; inhibition at 2.5 µM [5]: 56.4%; inhibition [7]: Active; inhibition at 1 µM [9]: 38.8%; IC50 [10]: 3.91 µM; inhibition at 10 µM [12]: 69.2%; IC50 [13]: 1.82 µM; inhibition at 1 µM [14]: 38.1%; inhibition at 5 µM [15]: 71.2%; inhibition at 0.1 µM [16]: -0.97%; inhibition [18]: Active; inhibition at 10 µM [19]: 95.3%; inhibition [20]: Active; inhibition at 0.1 µM [21]: 22.7%; inhibition [22]: Active; inhibition at 0.5 µM [23]: 28.6% |
| 11.5 µM | CCOC(=O)Cn1c2cc(OC)ccc2c2cc[n+]3nc(CC)c(CC)cc3c21.Cc1cc(C)cc(CS(=O)(=O)[O-])c1 | 51% | 45% | Non-toxic | 89.7% | 67% | Non-toxic | 94% |  |
|  | C#CCCCn1c2cc(OC)ccc2c2cc[n+]3nc4c(cc3c21)-c1cccc2cccc-4c12.Cc1cc(C)cc(CS(=O)(=O)[O-])c1 |  | 94% | Non-toxic | 0% |  | Non-toxic |  |  |
|  | CCc1cc2c3[nH]c4c([N+](=O)[O-])cccc4c3cc[n+]2nc1CC.Cc1cc(C)cc(CS(=O)(=O)[O-])c1 | 44% | 29% | Non-toxic | 79.4% | 56% | Non-toxic | 47% |  |
|  | CCc1cc2c3[nH]c4ccc(Br)cc4c3cc[n+]2nc1CC.Cc1cc(C)cc(CS(=O)(=O)[O-])c1 |  | 89% | Non-toxic | 3.76% |  | Non-toxic |  |  |
|  | Cc1cc2occ(CN(C)CCN(C)Cc3cn(-c4cccc(C(F)(F)F)c4)c4ccccc34)c(=O)c2cc1C |  |  |  |  |  |  |  | IC50 [26]: 22 µM |
| 9.33 µM | O=C1NC2c3ccccc3C(=O)N2c2ccccc21 (centres undefined) |  |  |  |  |  |  |  |  |
|  | CCc1cc2c3c(cc[n+]2nc1CC)c1ccc(OCc2ccccc2)cc1n3C(=O)OC(C)(C)C.Cc1cc(C)cc(CS(=O)(=O)[O-])c1 |  | 94% | Non-toxic | 33% |  | Non-toxic |  |  |
| 14.6 µM | Cc1cc(C)cc(CS(=O)(=O)[O-])c1.O=C(O)Cn1c2ccccc2[n+]2nc3c(cc12)-c1cccc2cccc-3c12 | 12% | 45% | Non-toxic | 69.9% | 7% | Non-toxic | 84% | inhibition at 0.1 µM [16]: 9% |
|  | CCc1cc2c3c(cc[n+]2nc1CC)c1ccc(OC)cc1n3CC(=O)O.Cc1cc(C)cc(CS(=O)(=O)[O-])c1 |  | 38% | Non-toxic | 93% |  | Non-toxic | 29% | inhibition at 50 µM [27]: 35%; inhibition at 100 µM [28]: 40% |
|  | CN(C)CCC[N+](C)(C)CCCn1c2ccccc2[n+]2nc3c(cc12)-c1cccc2cccc-3c12.[Br-].[Br-] |  | 39% | Non-toxic | 25.3% |  | Non-toxic |  |  |
|  | Cc1ccc(C2=Cc3ccccc3C3N(C)C(=O)c4ccccc4N23)cc1 (centres undefined) |  | 47% |  |  |  |  |  |  |
|  | C#CCCCn1c2cc(OC)ccc2c2cc[n+]3nc(-c4ccco4)c(-c4ccco4)cc3c21.Cc1cc(C)cc(CS(=O)(=O)[O-])c1 |  | 87% | Non-toxic | 0% |  | Non-toxic |  |  |
| 9.88 µM | CCc1cc2c3c(cc[n+]2nc1CC)c1ccc(OC)cc1n3CCCI.[I-] | 11% | 72% | Non-toxic | 63.3% | 36% | Non-toxic | 79% |  |
|  | CCc1cc2c3[nH]c4c(N)cccc4c3cc[n+]2nc1CC.Cl.Cl | 13.3% | 88% | Non-toxic | 65% | -13.4% | Non-toxic |  |  |
| 39.2 µM | Cc1cc(C)cc(CS(=O)(=O)[O-])c1.O=C(O)CCCn1c2ccccc2[n+]2nc3c(cc12)-c1cccc2cccc-3c12 |  | 19% | Non-toxic | 86% |  | Non-toxic | 47% | inhibition at 50 µM [27]: 70%; inhibition at 100 µM [28]: 85% |
|  | CCc1cc2c3c(cc[n+]2nc1CC)c1ccc(OC)cc1n3CCCC#CC#CCCCn1c2cc(OC)ccc2c2cc[n+]3nc(CC)c(CC)cc3c21.Cc1cc(C)cc(CS(=O)(=O)[O-])c1.Cc1cc(C)cc(CS(=O)(=O)[O-])c1 |  | 34% | Non-toxic | 9.54% |  | Non-toxic |  |  |
